Measured values published in publication PMC12263422, “Cryo-EM structure of the human THIK-1 K2P K^+ channel reveals a lower Y gate regulated by lipids and anesthetics” (Nature Structural & Molecular Biology, 2025).
Where “and” joins values, the source holds several entries; their conditions need not be identical. Equal entries are not always repeated. Where two headings read alike, the source gives them in different places.

Molecular target: T1, Human K2P13.1 THIK-1 (WT) (Homo sapiens, UniProt Q9HB14)
T1 construct: expressed in transfected cells; host or cells: Xenopus oocytes (mRNA injection)
T1 sequence (Q9HB14 1-408): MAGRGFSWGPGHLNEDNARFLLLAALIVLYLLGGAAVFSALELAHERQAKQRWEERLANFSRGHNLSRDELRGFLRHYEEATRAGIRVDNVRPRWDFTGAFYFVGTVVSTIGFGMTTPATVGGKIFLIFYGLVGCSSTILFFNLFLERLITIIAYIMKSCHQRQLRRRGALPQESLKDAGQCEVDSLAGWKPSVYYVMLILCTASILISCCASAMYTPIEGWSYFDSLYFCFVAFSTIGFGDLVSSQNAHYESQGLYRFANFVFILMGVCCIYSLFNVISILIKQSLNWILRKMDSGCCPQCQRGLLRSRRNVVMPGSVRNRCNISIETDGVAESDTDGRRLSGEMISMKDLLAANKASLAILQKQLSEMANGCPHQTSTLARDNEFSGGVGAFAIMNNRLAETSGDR
Test: Macroscopic inside-out excised patch recordings from Xenopus oocytes expressing WT THIK-1; compounds applied to the intracellular side
Assay type: cell-based
Settings: for inhibition at 152 µM: halothane 0.152 mM; for inhibition at 304 µM: halothane 0.304 mM; for inhibition at 1520 µM: halothane 1.52 mM; for inhibition at 3040 µM: halothane 3.04 mM; for inhibition at 15200 µM: halothane 15.2 mM; for Fold activation: THIK-1 WT (unstimulated)
Source text: Human K2P13.1 THIK-1 (GenBank accession number: NM_022054) and human K2P12.1 THIK-2 (NM_022055.1) were used in this study. For functional expression studies, the respective K^+ channel subtype coding sequences were subcloned into the oocyte expression vector pSGEM or the dual-purpose expression vector pFAW[41] and verified by sequencing. All mutant channels were obtained by site-directed mutagenesis and verified by sequencing. To increase surface expression and macroscopic currents, measurements of THIK-2 channels used a mutated ER retention motif, (R11A R12A R14A R15A R16A; THIK-2*)[20]. Vector DNA was linearized with NheI or MluI, and mRNA was synthesized in vitro using the SP6 or T7 AmpliCap Max High Yield Message Maker Kit (Cellscript, USA) or HiScribe T7 ARCA mRNA Kit (New England Biolabs).
Two-electrode voltage–clamp (TEVC) studies were performed in Xenopus oocytes. All animal use conformed to the Guide for the Care and Use of Laboratory Animals (NIH Publication 85–23), and all experiments using Xenopus toads were approved by the local ethics panels. Oocytes were stored at 17 °C in ND96 recording solution composed of (in mM): 96 NaCl, 2 KCl, 1.8 CaCl2, 1 MgCl2, 5 HEPES (pH 7.5 adjusted with NaOH and HCl), supplemented with Na-pyruvate (275 mg L^–1), theophylline (90 mg L^–1) and gentamicin (50 mg L^–1). Oocytes were injected with 1 ng mRNA for WT or mutant channels, and were incubated for 24–48 h at 17 °C. Two-electrode voltage clamp recordings were then performed as previously described[42],[43]. For macroscopic patch–clamp measurements, oocytes were obtained as described above incubated at 17 °C in a solution containing (mM): 54 NaCl, 30 KCl, 2.4 NaHCO3, 0.82 MgSO4 ×7 H2O, 0.41 CaCl2, 0.33 Ca(NO3)2 ×4 H2O and 7.5 TRIS (pH 7.4 adjusted with NaOH and HCl) for 1–4 days before use. Excised patch recordings in inside-out configuration conditions were performed at room temperature. Patch pipettes were made from thick-walled borosilicate glass GB 200TF-8P (Science Products), had resistances of 0.2–0.5 MΩ (tip diameter, 10–25 µm) and filled with a pipette solution (in mM): 120 KCl, 10 HEPES and 3.6 CaCl2 (pH 7.4 adjusted with KOH and HCl). Intracellular bath solutions and compounds were applied to the cytoplasmic side of excised patches for the various K^+ channels through a gravity flow multi-barrel pipette system. The intracellular solution had the following composition (in mM): 120 KCl, 10 HEPES, 2 EGTA and 1 pyrophosphate (pH adjusted with KOH and HCl). Currents were recorded with an EPC10 amplifier (HEKA Electronics) and sampled at 10 kHz or higher, with filtering set to 3 kHz (–3 dB) or higher, as appropriate for sampling rate. For measurements of GPCR activation, whole-cell currents were recorded for THIK-1 in transiently transfected HEK-293 cells. Cells were stimulated by a ramp protocol between −100 and +60 mV (holding potential, −80 mV). The pipette solution was composed of (in mM): 140 KCl, 2 MgCl2, 1 CaCl2, 2.5 EGTA and 10 HEPES (pH 7.3 adjusted with KOH and HCl). The extracellular bath solution had the following composition (in mM): 135 NaCl, 5 KCl, 2 MgCl2, 2 CaCl2, 10 glucose and 10 HEPES pH (pH 7.3 adjusted with NaOH and HCl). Oxotremorine M (Oxo-M) was added to extracellular bath solution to obtain the final concentration. Single-channel currents were recorded with an Axopatch 200B amplifier through a Digidata 1440A digitizer (Molecular Devices). Data were filtered at 2 kHz and recorded at a 200-kHz sampling rate with the program Clampex (Molecular Devices). Pipette solution and bath solution for cell-attached recordings contained (in mM): 140 KCl, 2 MgCl2, 1 CaCl2 and 10 HEPES (pH 7.4 adjusted with KOH and HCl). For inside-out recordings, the bath solution contained (in mM): 140 KCl, 2 MgCl2, 1 CaCl2 and 10 HEPES (pH 7.2 adjusted with KOH and HCl). All experiments were conducted at room temperature. […]

[1] = THIK-1 WT (TPenA), presence of 0.5 mM TPenA
[2] = THIK-1 WT (oleoyl-CoA), 5.0 µM oleoyl-CoA

FC(F)(F)C(Cl)Br (centres unmarked) [halothane]
inhibition at 152 µM (THIK-1 WT): 11% | inhibition at 152 µM [1]: 6.45% | inhibition at 304 µM (THIK-1 WT): 18.8% | inhibition at 304 µM [1]: 13% | inhibition at 304 µM [2]: 4.78% | inhibition at 1520 µM (THIK-1 WT): 41.4% | inhibition at 1520 µM [1]: 23.2% | inhibition at 1520 µM [2]: 19.9% | inhibition at 3040 µM (THIK-1 WT): 57.6% | inhibition at 3040 µM [1]: 30% | inhibition at 3040 µM [2]: 38.9% | inhibition at 15200 µM (THIK-1 WT): 83.9% | inhibition at 15200 µM [1]: 57.9% | inhibition at 15200 µM [2]: 69.3%

CCCCC/C=C\C/C=C\CCCCCCCC(=O)O [linoleic acid]
Fold activation (1 µM linoleic acid): 0.98 | Fold activation (10 µM linoleic acid): 1.75 | Fold activation (30 µM linoleic acid): 2.77 | Fold activation (50 µM linoleic acid): 3.38 | Fold activation (100 µM linoleic acid): 3.62 | Fold activation (150 µM linoleic acid): 4.27 | Fold activation (200 µM linoleic acid): 4.21 | Fold activation with 30.0 µM linoleic acid (THIK-1 WT, individual recordings): 3.150 and 3.640 and 4.490 and 2.650 and 2.000 and 1.880 and 1.350 and 1.220 and 3.650 and 3.260 and 3.220 | Fold activation with 30.0 µM linoleic acid (THIK-1 WT, mean): 2.77 | EC50 (THIK-1 WT, mean, read-out: Linoleic acid EC50): 28.5 µM | EC50 (applied intracellularly to excised patches, WT, read-out: half-maximal effective concentration (activation)): 29 ± 5 µM

FC(F)OC(Cl)C(F)(F)F (centres unmarked) [Isoflurane, isoflurane]
Inhibition (%) (4.9 mM Isoflurane, WT, individual recordings): 88.353% and 81.703% and 79.557% and 81.992% and 78.205% and 79.070% and 68.116% and 80.054% and 86.809% and 87.556% | inhibition at 242 µM (THIK-1 WT (oleoyl-CoA), 0.242 mM isoflurane): 10.6% | inhibition at 485 µM (THIK-1 WT (oleoyl-CoA), 0.485 mM isoflurane): 21% | inhibition at 2420 µM (THIK-1 WT (oleoyl-CoA), 2.42 mM isoflurane): 33.6% | inhibition at 4850 µM (THIK-1 WT (oleoyl-CoA), 4.85 mM isoflurane): 60.9% | inhibition at 24200 µM (THIK-1 WT (oleoyl-CoA), 24.2 mM isoflurane): 79.7% | Inhibition (THIK-1 WT (oleoyl-CoA), isoflurane concentration printed as "v" (mM)): 4.36% | inhibition at 48 µM (isoflurane 0.048 mM, THIK-1 WT): 20.4% | inhibition at 242 µM (isoflurane 0.242 mM, THIK-1 WT): 33.6% | inhibition at 485 µM (isoflurane 0.485 mM, THIK-1 WT): 50.2% | inhibition at 2420 µM (isoflurane 2.42 mM, THIK-1 WT): 65.3% | inhibition at 4850 µM (isoflurane 4.85 mM, THIK-1 WT): 81.1% | inhibition at 24200 µM (isoflurane 24.2 mM, THIK-1 WT): 89.5%

FCOC(C(F)(F)F)C(F)(F)F [Sevoflurane, sevoflurane]
Inhibition (%) (0.24 mM Sevoflurane, WT, individual recordings): 52.54% and 40.05% and 49.45% and 28.56% and 58.12% and 60.68% and 50.30% | inhibition at 240 µM (0.24 mM Sevoflurane, WT, mean): 48.5% | inhibition at 23 µM (THIK-1 WT, 0.023 mM sevoflurane): 14.1% | inhibition at 47 µM (THIK-1 WT, 0.047 mM sevoflurane): 21.7% | inhibition at 468 µM (THIK-1 WT, 0.468 mM sevoflurane): 57.5% | inhibition at 2340 µM (THIK-1 WT, 2.34 mM sevoflurane): 79.5%
